For 18 compounds, Bliss interaction score results are on record in the supplement of paper PMC10627819.

What all share (experiment): Bliss interaction score (quartile over a dose matrix) (fitness difference); higher = more antagonism (negative = synergy)
Assay [1] relates to S. aureus Newman. The method, boiled down: (§1)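 Growth in each well was taken as OD595 at entry into stationary phase. Dividing by the plate's robust no-drug mean and capping at 1 gave fitness, and single-drug fitness was inferred from the combination data. The Bliss score, observed minus product-expected fitness, is summarised by quartiles over technical, biological and donor/recipient replicates.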

The test system of assay [2] is S. pneumoniae D39V. The method, boiled down:
as §1

Assay [3] has as its system B. subtilis 168. Put shortly:
as §1

Assay [4] relates to S. aureus DSM 20231. Put shortly:
as §1
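Also: first quartile when negative (synergy) and third quartile when positive (antagonism).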

`COc1ccc(C[C@H](N)C(=O)N[C@H]2[C@@H](O)[C@H](n3cnc4c(N(C)C)ncnc43)O[C@@H]2CO)cc1` [Puromycin] + Oc1cc(Cl)ccc1Oc1ccc(Cl)cc1Cl [Triclosan]: the Bliss interaction score in assay [1] was 0.0281; in assay [2], 0.102; in assay [3], 0.0476; in assay [4] it was 0.0973.
For `CO/N=C(\C(=O)N[C@@H]1C(=O)N2C(C(=O)O)=C(COC(N)=O)CS[C@H]12)c1ccco1` [Cefuroxime] + CC[C@H]1OC(=O)[C@H](C)[C@@H](O[C@H]2C[C@@](C)(OC)[C@@H](O)[C@H](C)O2)[C@H](C)[C@@H](O[C@@H]2O[C@H](C)C[C@H](N(C)C)[C@H]2O)[C@](C)(O)C[C@@H](C)C(=O)[C@H](C)[C@@H](O)[C@]1(C)O [Erythromycin], in that order: 0.0555, 0.0365, -0.0464 and -0.255.
In the case of `CC(=O)Oc1ccccc1C(=O)O` [Acetylsalicylicacid] + CC(C1CCC(C(O1)OC2C(CC(C(C2O)OC3C(C(C(CO3)(C)O)NC)O)N)N)N)NC [Gentamicin], the Bliss interaction score came out at 0.0614 in assay [1] (main component drawn), 0.0535 in assay [2] (main component drawn), 0.286 in assay [3] (main component drawn) and 0.165 in assay [4] (main component drawn).
In the case of `CO/N=C(\C(=O)N[C@@H]1C(=O)N2C(C(=O)O)=C(COC(N)=O)CS[C@H]12)c1ccco1` [Cefuroxime] + O=C(N[C@H](CO)[C@H](O)c1ccc([N+](=O)[O-])cc1)C(Cl)Cl [Chloramphenicol], the Bliss interaction score in assay [1] was -0.0407; in assay [2], -0.0245; in assay [3], 0.162; in assay [4], -0.341.
`CN(C)[C@@H]1C(O)=C(C(N)=O)C(=O)[C@@]2(O)C(O)=C3C(=O)c4c(O)ccc(Cl)c4[C@@](C)(O)[C@H]3C[C@@H]12` [Clortetracycline] + C[C@H]1COc2c(N3CCN(C)CC3)c(F)cc3c(=O)c(C(=O)O)cn1c23 [Levofloxacin]: the Bliss interaction score in assay [1] stood at 0.0876; in assay [2], 0.0525; in assay [3] it was 0.035; in assay [4], 0.115.
For `CC(=O)Oc1ccccc1C(=O)O` [Acetylsalicylicacid] + CO[C@@]12[C@H](COC(N)=O)C3=C(C(=O)C(C)=C(N)C3=O)N1C[C@@H]1N[C@@H]12 [MitomycinC], the Bliss interaction score in assay [1] is -0.0274; in assay [2], 0.0652; in assay [3] it was -0.0648; in assay [4], 0.0545.
As for `CC1(C)S[C@@H]2[C@H](NC(=O)Cc3ccccc3)C(=O)N2[C@H]1C(=O)O` [PenicillinG] + CO[C@H]1/C=C/O[C@@]2(C)Oc3c(C)c(O)c4c(O)c(c(/C=N/N5CCN(C)CC5)c(O)c4c3C2=O)NC(=O)/C(C)=C\C=C\[C@H](C)[C@H](O)[C@@H](C)[C@@H](O)[C@@H](C)[C@H](OC(C)=O)[C@@H]1C [Rifampicin], the Bliss interaction score was 0.0252 in assay [1], -0.112 in assay [2], 0.0761 in assay [3] and 0.036 in assay [4].
For `CO/N=C(\C(=O)N[C@@H]1C(=O)N2C(C(=O)O)=C(COC(N)=O)CS[C@H]12)c1ccco1` [Cefuroxime] + O=C1CN(/N=C/c2ccc([N+](=O)[O-])o2)C(=O)N1 [Nitrofurantoin], in that order: -0.0317, 0.0749, -0.104 and 0.0612.
In the case of `N#CC(C#N)=NNc1cccc(Cl)c1` [CCCP] + COc1cccc2c1C(=O)c1c(O)c3c(c(O)c1C2=O)C[C@@](O)(C(=O)CO)C[C@@H]3O[C@H]1C[C@H](N)[C@H](O)[C@H](C)O1 [Doxorubicin], the Bliss interaction score is -0.0546 in assay [1], -0.0519 in assay [2], -0.0695 in assay [3] and 0.0424 in assay [4].
For `N#CC(C#N)=NNc1cccc(Cl)c1` [CCCP] + O=C(O)[C@H]1/C(=C/CO)O[C@@H]2CC(=O)N21 [Clavulanic], in that order: 0.0274, 0.0476, 0.0453 and -0.315.
For `N#CC(C#N)=NNc1cccc(Cl)c1` [CCCP] + CC(=O)NC[C@H]1CN(c2ccc(N3CCOCC3)c(F)c2)C(=O)O1 [Linezolid], in that order: 0.0931, 0.0853, 0.0322 and -0.0274.
Turning to `O=C(O)c1cn(C2CC2)c2cc(N3CCNCC3)c(F)cc2c1=O` [Ciprofloxacin] + CN(C)[C@@H]1C(O)=C(C(N)=O)C(=O)[C@@]2(O)C(O)=C3C(=O)c4c(O)ccc(Cl)c4[C@@](C)(O)[C@H]3C[C@@H]12 [Clortetracycline], the Bliss interaction score in assay [1] was 0.119; in assay [2], -0.035; in assay [3], 0.199; in assay [4] it was 0.104.
With `N#CC(C#N)=NNc1cccc(Cl)c1` [CCCP] + COc1cc(Cc2cnc(N)nc2N)cc(OC)c1OC [Trimethoprim], the Bliss interaction score in assay [1] is -0.0599; in assay [2] it was 0.183; in assay [3], 0.0605; in assay [4], 0.0495.
For `COc1cccc2c1C(=O)c1c(O)c3c(c(O)c1C2=O)C[C@@](O)(C(=O)CO)C[C@@H]3O[C@H]1C[C@H](N)[C@H](O)[C@H](C)O1` [Doxorubicin] + CO[C@@]12[C@H](COC(N)=O)C3=C(C(=O)C(C)=C(N)C3=O)N1C[C@@H]1N[C@@H]12 [MitomycinC], in that order: 0.122, -0.0709, -0.269 and -0.0314.
Regarding `CN(C)[C@@H]1C(O)=C(C(N)=O)C(=O)[C@@]2(O)C(O)=C3C(=O)c4c(O)ccc(Cl)c4[C@@](C)(O)[C@H]3C[C@@H]12` [Clortetracycline] + CN(C)c1cc(NC(=O)CNC(C)(C)C)c(O)c2c1C[C@H]1C[C@H]3[C@H](N(C)C)C(O)=C(C(N)=O)C(=O)[C@@]3(O)C(O)=C1C2=O [Tigecycline], the Bliss interaction score was -0.0522 in assay [1], -0.0325 in assay [2], 0.0768 in assay [3] and -0.14 in assay [4].
With `N#CC(C#N)=NNc1cccc(Cl)c1` [CCCP] + C[C@@H]1O[C@@H]1P(=O)(O)O [Fosfomycin], the Bliss interaction score in assay [1] came to 0.0906; in assay [2], 0.0604; in assay [3], 0.0638; in assay [4] it was 0.0417.
As for `CC(=O)Oc1ccccc1C(=O)O` [Acetylsalicylicacid] + N[C@@H]1CONC1=O [CycloserineD], the Bliss interaction score in assay [1] is -0.115; in assay [2], 0.146; in assay [3], 0.221; in assay [4], 0.0689.
For `O=C(O)c1cn(C2CC2)c2cc(N3CCNCC3)c(F)cc2c1=O` [Ciprofloxacin] + N[C@@H]1CONC1=O [CycloserineD], in that order: -0.105, 0.0695, -0.0971 and -0.0461.
